pIC50: −log10 of the molar value.
Experiments:
SW403 cells = assay: Isobolographic analysis of combined treatment of SW403 cells (ED50, trypan blue assay); format: cell-based, human
Description: Interaction between drugs was assessed by isobolographic analysis, based on the concept of dose-equivalence which follows from the dose effect curves of the individual drugs (Tallarida R I, Interactions between drugs and occupied receptors. Pharmacol. Ther. 2007, 113, 197-209; Tallarida R J, Raffa R B, The application of drug dose equivalence in the quantitative analysis of receptor occupation and drug combinations. Pharmacol. Ther. 2010; 127, 165-174). Specifically, the individual drugs' potency and efficacy allow calculating the expected effect of a combination of the two drugs.
In the experiment of combined treatment, isobolograms were constructed by plotting on vertical and horizontal axes the ED50 data of the single drugs measured by trypan blue assay after subcronic treatment for 72 hrs. The straight line with axial intercepts represents the isobole of additivity and allows calculating the theoretical additive dose. Synergism is indicated by an observed pair (x, y) that plots below the isobole for the specified effect, whereas sub-additivity is indicated when an observed pair (x, y) plots above the isobole.

[1] = tested on: human colon adenocarcinoma cell line SW403; assay: Ceramide levels in SW403 cells (lipid extraction, LC/MS); format: cell-based; conditions: 3 μM, 3 hrs, vs. vehicle
Description: Lipids were extracted using a chloroform/methanol mixture (2:1 vol/vol, 3 mL) containing internal standards. The organic phases were collected, dried under nitrogen, and dissolved in methanol/chloroform (3:1 vol/vol) for LC/MS analyses.
Ceramides were analyzed by LC/MS^n, using a 1100-LC system (Agilent Technologies) equipped with an Ion Trap XCT and interfaced with ESI (Agilent Technologies). They were separated on a Poroshell 300 SB C18 column (2.1×75 mm i.d., 5 μm; Agilent Technologies) maintained at 30° C. A linear gradient of methanol in water containing 5 mM ammonium acetate and 0.25% acetic acid (from 80% to 100% of methanol in 3 man) was applied at a flow rate of 1 mL/min. […]
Tissue-derived ceramides were identified by comparison of their LC retention times and MS^n fragmentation patterns with those of authentic standards (Avanti Polar Lipids). Extracted ion chromatograms were used to quantify myristoyl ceramide (C140, m/z 510.5>492.5>264.3), palmitoyl ceramide (C16:0, m/z 538.5>520.3>264.3), stearoyl ceramide (C18:0 m/z 566.5>548.3>264.3), lignoceroylceramide (C24:0 m/z 650.5>632.3>264.3), nervonoylceramide (C24:1 m/z 648.5>630.3>264.3) and using lauroyl ceramide standard (m/z 482.5>464.5>264.3). […]

[2] = target: rat acid ceramidase (rAC) (Rattus norvegicus (Rat), UniProt Q6P7S1); assay: Rat acid ceramidase (rAC) enzymatic assay, LC/MS of lauric acid; format: biochemical; conditions: rat acid ceramidase, 100 μM N-lauroyl ceramide, pH 4.5
Description: A lysosomal rat acid ceramidase (rAC) protein preparation was obtained from cells stably expressing rAC resuspended in 20 mM Tris HCl (pH 7.5) with 0.32 M sucrose. Samples were sonicated and centrifuged at 800×g for 15 min at 4° C. Supernatants were then centrifuged at 12,000×g for 30 min at 4° C. Pellets were re-suspended in PBS pH 7.4 and subjected to 2 freeze-thaw cycles at −80° C. The suspension was finally centrifuged at 105,000×g for 1 hr at 4° C. and the supernatant containing rAC was then used in the enzymatic assay.
r-AC protein samples were pre-incubated with various concentrations of test compounds or vehicle control in 100 mM NaH2PO4/citrate buffer pH 4.5, 0.1% Nonidet P-40, 3 mM DTT for 30 min at 37° C. Samples were incubated with 100 μM N-lauroyl ceramide (Nu-Chek Prep, Elysian, Minn.) at 37° for 30 min. The reaction was stopped by addition of a mixture of chloroform/methanol (2:1 vol/vol) containing 1 nmol of heptadecanoic acid (HDA; NuChek Prep). The organic phases were collected, dried under nitrogen, and analyzed by LC/MS in the negative-ion mode using heptadecanoic acid (HDA) as internal standard (m/z=199 for lauric acid, m/z=269 for HDA). HDA was eluted on an XDB Eclipse C18 column isocratically at 2.2 mL/min for 1 min with a solvent mixture of 95% methanol and 5% water, both containing 0.25% acetic acid, and 5 mM ammonium acetate. The column temperature was 50° C. Electrospray ionization (ESI) was in the negative mode, capillary voltage was 4 kV, and fragmentor voltage was 100 V. Nitrogen was used as drying gas at a flow rate of 13 L/min and at a temperature of 350° C. Nebulizer pressure was set at 60 psi. We monitored [M-H]− in the selected-ion monitoring (SIM) mode using HDA as internal standard.
Inhibition of rAC activity was calculated as a reduction of lauric acid in the samples compared to vehicle controls. Median inhibitory concentration (IC50) values were calculated by non-linear regression analysis of log [concentration]/inhibition curves using. GraphPad Prism 5 (GraphPad Software, Inc., CA, USA) applying a standard slope curve fitting.

[3] = SW403 cells, 72 hrs, isobole of additivity, higher than the experimental values

rat acid ceramidase (rAC), sequence (Q6P7S1 142-394): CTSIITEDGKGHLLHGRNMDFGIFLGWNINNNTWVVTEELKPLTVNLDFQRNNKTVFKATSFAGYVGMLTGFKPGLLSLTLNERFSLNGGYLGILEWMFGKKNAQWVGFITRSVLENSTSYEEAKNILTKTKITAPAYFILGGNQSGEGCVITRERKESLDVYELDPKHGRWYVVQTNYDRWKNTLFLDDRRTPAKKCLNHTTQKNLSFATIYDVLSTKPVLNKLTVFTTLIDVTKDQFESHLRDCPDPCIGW
rat acid ceramidase (rAC), sequence (Q6P7S1 21-141): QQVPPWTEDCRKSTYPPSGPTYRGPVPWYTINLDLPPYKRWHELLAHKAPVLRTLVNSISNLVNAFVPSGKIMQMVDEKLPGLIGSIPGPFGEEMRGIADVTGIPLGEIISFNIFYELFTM

## CCCCCCNC(=O)n1cc(Br)c(=O)[nH]c1=O [Example 5, 5-bromo-N-hexyl-2,4-dioxo-pyrimidine-1-carboxamide]
SW403 cells; [3]
  theoretical dose (Th) to be used with 20 nM taxol to obtain an additive effect: 9.5 µM
  theoretical dose (Th) to be used with 300 nM 5FU to obtain an additive effect: 14.9 µM
SW403 cells; prolonged treatment, 20 nM taxol, trypan blue ED50
  interaction with taxol in reducing viability of SW403 cells (isobologram): synergistic effect
SW403 cells; prolonged treatment, 300 nM 5FU, trypan blue ED50
  interaction with 5-fluorouracil in reducing viability of SW403 cells (isobologram): synergistic effect
[1]
  levels of C14:0, C16:0 and C18:0 ceramide: increased
[2]
  pIC50: 7.29
